Assay results: patent publication US20220054494A1, “METHODS FOR TREATING BLADDER AND URETHRA DYSFUNCTION AND DISEASE” (University of Pittsburgh - Of the Commonwealth System of …, priority 2019, published 2022)
“Also recorded” adds a separate entry of the source.

Experiments:
MCP-1 = experiment: RT-qPCR of bladder MCP-1 mRNA in CYP cystitis model; type: in vivo, rat; conditions: CYP (75 mg/kg i.p.) female Sprague Dawley rats; oral 8-AG 5 mg/kg/day starting one week prior to CYP
Description: Animals: Female Sprague Dawley rats were employed in this example (Charles River; Wilmington, Mass.). Three groups of animals were included. Group 1 received an i.p. injection of saline and was used as a control; groups 2 and 3 received an i.p. injection of cyclophosphamide (CYP, SIGMA-ALDRICH®, St Louis, Mo., day 0, 3, 6, sacrifice day 8, 75 mg/kg, i.p.) with group 3 treated with oral 8-AG (5 mg/kg/day; starting one week prior to CYP). CYP induced bladder inflammation and is a well-established pre-clinical model for BPS/IC.
RT-qPCR: Total RNA was isolated from bladders using TRIZOL® Reagent (THERMO FISHER SCIENTIFIC®; Waltham, Mass.) according to the manufacturer's instructions. The cDNA was synthesized using ISCRIPT™ cDNA synthesis kit (BIO-RAD®). qPCR analysis was performed using Power SYBR™ Green PCR Master Mix (THERMO FISHER SCIENTIFIC®) in the APPLIED BIOSYSTEMS® QUANTSTUDIO™ 3 Real-Time PCR System (THERMO FISHER SCIENTIFIC®). The primers used were as follows: for IL-1beta, 5′-[…]-3′ (forward; SEQ ID NO: 1) and 5′-[…]-3′ (reverse; SEQ ID NO: 2); for MCP-1, 5′-[…]-3′ (forward; SEQ ID NO: 3) and 5′-[…]-3′ (reverse; SEQ ID NO: 4); for β-actin, 5′-ACTCTTCCAGCCTTCCTTC-3′ (forward; SEQ ID NO: 5) and 5′-[…]-3′ (reverse; SEQ ID NO: 6). The threshold cycle (Ct) for target was subtracted from Ct for β-actin to give ΔCt. Results are expressed as 2AC.

p16 = experiment: Western immunoblotting, senescence marker p16; type: in vivo, rat
Description: Western immunoblotting and transmission electron microscopy: Following these testing paradigms, rats were deeply anesthetized, bladders were removed, and one half of each bladder (using the smooth muscle layer) was homogenized using Lysing Matrix D in a FASTPREP-24™ instrument (MP BIOMEDICALS™, Solon, Ohio) in HBSS (5 mM KCl, 0.3 mM KH2PO4, 138 mM NaCl, 4 mM NaHO3, 0.3 mM Na2HCO3, 0.3 mM Na2HPO4, 5.6 mM glucose and 10 mM Hepes, pH 7.4) containing complete protease inhibitor cocktail (1 tablet/10 ml, ROCHE™, Indianapolis, Ind.) and phosphatase inhibitor cocktail (SIGMA®, 1:100). Whole rat kidney was also homogenized using the same procedure. After centrifugation (13000 rpm; 15 min at 4° C.), the membrane protein fraction was prepared by suspending the membrane pellets in lysis buffer containing 0.3 M NaCl, 50 mM Tris-HCl (pH 7.6), 0.5% Triton X-100, and the same concentration of protease inhibitors as above. […] The protein concentrations of the combined supernatants were determined using the PIERCE™ BCA protein assay (THERMO SCIENTIFIC™, Rockford, Ill.). […] As a loading control, total protein per sample was determined using BIO-RAD™ Stain Free SDS-PAGE gel technology. UV-activated protein fluorescence was imaged on a CHEMIDOC™ MP (BIO-RAD™). […] The volume (intensity) of each protein species was determined and normalized to total protein using Image Lab software (BIO-RAD™). […]

aged rats = experiment: Voiding analysis in metabolic cages, aged rats; type: in vivo, rat
PNPase = PNPase (Homo sapiens, UniProt P00491); conditions: Jackson et al., J Am Heart Assoc 2018; cited from earlier work
AVP receptor V2 = experiment: Western immunoblotting, kidney V2 vasopressin receptor; type: in vivo, rat; conditions: aged Fisher 344 rats; 8-AG 5 mg kg/day via drinking water, 1 month
Description: Western immunoblotting and transmission electron microscopy: Following these testing paradigms, rats were deeply anesthetized, bladders were removed, and one half of each bladder (using the smooth muscle layer) was homogenized using Lysing Matrix D in a FASTPREP-24™ instrument (MP BIOMEDICALS™, Solon, Ohio) in HBSS (5 mM KCl, 0.3 mM KH2PO4, 138 mM NaCl, 4 mM NaHO3, 0.3 mM Na2HCO3, 0.3 mM Na2HPO4, 5.6 mM glucose and 10 mM Hepes, pH 7.4) containing complete protease inhibitor cocktail (1 tablet/10 ml, ROCHE™, Indianapolis, Ind.) and phosphatase inhibitor cocktail (SIGMA®, 1:100). Whole rat kidney was also homogenized using the same procedure. After centrifugation (13000 rpm; 15 min at 4° C.), the membrane protein fraction was prepared by suspending the membrane pellets in lysis buffer containing 0.3 M NaCl, 50 mM Tris-HCl (pH 7.6), 0.5% Triton X-100, and the same concentration of protease inhibitors as above. […] The protein concentrations of the combined supernatants were determined using the PIERCE™ BCA protein assay (THERMO SCIENTIFIC™, Rockford, Ill.). […] As a loading control, total protein per sample was determined using BIO-RAD™ Stain Free SDS-PAGE gel technology. UV-activated protein fluorescence was imaged on a CHEMIDOC™ MP (BIO-RAD™). […] The volume (intensity) of each protein species was determined and normalized to total protein using Image Lab software (BIO-RAD™).

[1] = aged Fisher 344 rats, 8-AG 5 mg kg/day via drinking water, 1 month

Chain of PNPase (P00491 whole entry): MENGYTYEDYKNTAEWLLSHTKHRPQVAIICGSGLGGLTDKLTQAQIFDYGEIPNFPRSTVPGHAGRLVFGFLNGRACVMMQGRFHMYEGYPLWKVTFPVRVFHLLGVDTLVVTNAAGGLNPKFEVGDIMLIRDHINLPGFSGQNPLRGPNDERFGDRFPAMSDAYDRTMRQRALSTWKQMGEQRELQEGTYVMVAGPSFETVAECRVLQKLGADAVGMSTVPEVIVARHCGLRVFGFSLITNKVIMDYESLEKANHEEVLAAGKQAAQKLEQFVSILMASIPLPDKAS

SMILES: Nc1nc2[nH]c(N)nc2c(=O)[nH]1 [8-AG, 8-Aminoguanine]
- MCP-1 mRNA expression in bladder (MCP-1): suppressed; also recorded: near the detection limit; also recorded: nearly abolished
- senescence marker p16 in bladder smooth muscle (p16; [1]): restored to a younger state; also recorded: restored to levels similar to the younger state
- senescence marker p16 in detrusor smooth muscle (p16; aged rats, oral 8-AG 5 mg/kg/day, 6 weeks): levels similar to the younger state; also recorded: restored these biomarkers to that of a younger state
- intercontraction interval (aged rats; aged Fischer 344 rats, oral 8-AG 5 mg/kg/day, 6 weeks): attenuates
- intercontraction interval (aged rats; [1]): attenuates
- PNPase inhibition (mechanism of diuresis, natriuresis, glucosuria) (PNPase): inhibiting
- V2 vasopressin receptor in kidney (AVP receptor V2): restored to a younger state; also recorded: restored to levels similar to the younger state
